Assay results as given in patent US20260226084A1, “DUAL RAF AND TUBULIN INHIBITORS AND METHODS OF USE THEREOF” (Deciphera Pharmaceuticals, LLC, priority 2023, published 2026).
pIC50: −log10 of the molar value.

Assays:
HCT-116 cells = assay: HCT-116 Cell Proliferation Assay; assay type: cell-based; conditions: Homo sapiens; Table 5; HCT-116 mutant KRAS colorectal cancer cell line; read-out: HCT-116
Method in brief: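 HCT-116 cells, 375/well in McCoy's 5A with 10% FBS, exposed to serial compound dilutions in triplicate for 67 to 72 hours at 37 °C. Viability read by resazurin fluorescence (ex 540/em 600 nm) after a further 4 to 5 h; IC50 values calculated.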

[1] = system: tubulin polymerization in HCT-116 cells; assay: Cellular Tubulin Polymerization Assay; assay type: cell-based; conditions: Homo sapiens, Table 5, read-out: Tubulin Cellular
Method: HCT-116 cells (catalog #CCL-247) are obtained from the American Type Culture Collect (ATCC, Manassas, VA). Briefly, cells are grown in McCoy's 5A supplemented with 10% characterized fetal bovine serum (Invitrogen, Carlsbad, CA) and 1% Penicillin/Streptomycin/L-Glutamine at 37° C., 5% CO2, and 95% humidity. Cells are expanded until reaching 70-95% confluency at which point they are subcultured or harvested for assay use. 450000 cells are added per well in 1500 μL complete growth medium in a tissue culture treated, 12-well plate. Plates are incubated for 18 to 24 h at 37° C., 5% CO2, and 95% humidity. At the end of the incubation, 2000 μL of base culture media is added to each well, followed by a serial dilution of compound. Plates are incubated for an additional 1 h at 37° C., 5% CO2, and 95% humidity. Lysates are generated by the addition of 100 μL Lysis and Microtubule Stabilization Buffer 1 (LMS01, Cytoskeleton Inc, Denver, CO) supplemented with GTP (BST06, Cytoskeleton Inc), ATP (BSA04, Cytoskeleton Inc), and Protease Inhibitor Cocktail Stock (PIC02, Cytoskeleton Inc). Cells are scraped off wells using a rubber cell scraper and collected in a clean 96-well plate. Lysates are centrifuged at 1000×g, 37° C. for 10 min and supernatant fraction is placed into an additional 96-well plate. The remaining pellet fraction is reconstituted in 100 μL LMS01 buffer and sonicated for 10 min. Pellet and Supernatant fractions are probed for α-tubulin via western blot analysis on the Jess System or equivalent (Bio-techne, Minneapolis, MN). Data is analyzed using Prism software (Graphpad, San Diego, CA) to calculate IC50values.

MiaPaca-2 cells = assay: MiaPaca-2 Cell Proliferation Assay; assay type: cell-based; conditions: Homo sapiens, MIA PaCa-2; Table 5; MiaPaca-2 mutant KRAS pancreatic cancer cell line; read-out: MiaPaca-2
Method in brief: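 Viability was read as resazurin fluorescence (540 nm excitation, 600 nm emission) after 5–6 h with dye. Compounds were tested as serial dilutions in triplicate, with IC50 derived from the dose–response.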

HPAF-II cells = assay: HPAF-II Cell Proliferation Assay; assay type: cell-based; conditions: Homo sapiens; Table 5; HPAF-II mutant KRAS pancreatic cancer cell line; read-out: HPAF-II
Method in brief: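 HPAF-II cells (750/well) in complete MEM with 10% FBS were exposed to serially diluted compound in triplicate for 115–120 h at 37 °C, 5% CO2. Resazurin was then added for 18–24 h more; fluorescence (ex 540/em 600 nm) gave IC50.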

Porcine Brain Tubulin = target: T1, Porcine Brain Tubulin (Sus scrofa, UniProt P02550+P02554); assay: Biochemical Tubulin Polymerization Assay; conditions: Table 5, previously disclosed BRAF/CRAF inhibitors; read-out: Tubulin Biochem
T1 construct: Porcine Brain Tubulin (T240); purchased Cytoskeleton, Inc T240; BK011P; host or cells: porcine brain (tissue-purified)
T1 sequence (P02550 whole entry): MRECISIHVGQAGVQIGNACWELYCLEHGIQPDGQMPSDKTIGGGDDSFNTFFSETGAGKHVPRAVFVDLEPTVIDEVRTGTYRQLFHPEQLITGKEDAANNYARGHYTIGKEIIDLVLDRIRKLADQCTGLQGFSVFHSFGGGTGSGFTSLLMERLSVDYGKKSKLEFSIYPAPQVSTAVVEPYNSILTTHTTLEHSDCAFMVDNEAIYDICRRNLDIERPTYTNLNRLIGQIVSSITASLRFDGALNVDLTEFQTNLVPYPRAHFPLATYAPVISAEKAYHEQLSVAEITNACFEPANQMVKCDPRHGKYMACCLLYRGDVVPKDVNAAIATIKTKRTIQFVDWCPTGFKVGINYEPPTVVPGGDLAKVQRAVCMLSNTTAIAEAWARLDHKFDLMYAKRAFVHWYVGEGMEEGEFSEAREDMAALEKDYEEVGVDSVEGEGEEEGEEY
T1 sequence (P02554 whole entry): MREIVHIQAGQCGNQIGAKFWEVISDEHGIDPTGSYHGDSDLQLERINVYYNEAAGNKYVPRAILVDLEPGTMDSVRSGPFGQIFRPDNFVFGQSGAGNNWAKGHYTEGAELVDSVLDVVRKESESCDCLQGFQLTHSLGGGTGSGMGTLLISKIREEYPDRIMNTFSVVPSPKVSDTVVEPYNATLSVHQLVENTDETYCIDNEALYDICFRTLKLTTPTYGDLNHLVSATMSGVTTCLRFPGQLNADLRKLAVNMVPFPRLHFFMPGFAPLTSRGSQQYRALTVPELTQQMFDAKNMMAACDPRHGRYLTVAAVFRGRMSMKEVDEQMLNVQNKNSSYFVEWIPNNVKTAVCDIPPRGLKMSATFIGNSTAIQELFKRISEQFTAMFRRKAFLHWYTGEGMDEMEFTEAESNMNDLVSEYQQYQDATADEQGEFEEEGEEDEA

[2] = target: T2, B-Raf kinase (SEQ ID NO: 1) (Homo sapiens, UniProt P15056); assay: Biochemical Assay for B-Raf (coupled pyruvate kinase/lactate dehydrogenase assay); conditions: Table 5, previously disclosed BRAF/CRAF inhibitors; read-out: BRAF
T2 construct: GST (N); purchased Sigma
T2 sequence (P15056 416-766): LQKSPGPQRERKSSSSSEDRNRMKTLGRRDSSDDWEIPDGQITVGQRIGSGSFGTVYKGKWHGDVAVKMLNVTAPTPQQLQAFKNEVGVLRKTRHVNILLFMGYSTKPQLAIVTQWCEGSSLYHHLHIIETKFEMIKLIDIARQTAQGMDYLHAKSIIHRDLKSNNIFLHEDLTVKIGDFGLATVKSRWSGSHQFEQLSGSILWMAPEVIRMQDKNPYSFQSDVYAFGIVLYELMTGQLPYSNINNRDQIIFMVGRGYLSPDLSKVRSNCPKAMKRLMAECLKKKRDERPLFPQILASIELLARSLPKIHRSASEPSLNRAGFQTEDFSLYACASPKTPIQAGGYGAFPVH

[3] = target: T3, C-Raf kinase (SEQ ID NO: 2) (Homo sapiens, UniProt P04049, Y340D/Y341D); assay: Biochemical Assay for C-Raf (coupled pyruvate kinase/lactate dehydrogenase assay); conditions: Table 5, previously disclosed BRAF/CRAF inhibitors; read-out: CRAF
T3 construct: C-Raf residues 306-end; Y340D, Y341D with; GST (N); purchased Sigma
T3 sequence (P04049 307-648 Y340D/Y341D): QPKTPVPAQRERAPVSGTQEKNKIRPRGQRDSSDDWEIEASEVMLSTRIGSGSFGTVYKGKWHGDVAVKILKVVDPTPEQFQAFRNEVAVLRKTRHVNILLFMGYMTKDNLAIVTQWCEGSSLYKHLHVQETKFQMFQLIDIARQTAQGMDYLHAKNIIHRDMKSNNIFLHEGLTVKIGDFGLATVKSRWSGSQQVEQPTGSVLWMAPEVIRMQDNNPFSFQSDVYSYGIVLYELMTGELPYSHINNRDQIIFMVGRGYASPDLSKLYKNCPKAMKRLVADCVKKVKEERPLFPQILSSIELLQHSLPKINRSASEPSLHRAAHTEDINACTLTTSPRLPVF

## C[C@@H](NC(=O)c1ncnc(N)c1Cl)c1ncc(C(=O)Nc2cc(C(F)(F)F)c(Cl)cn2)s1 [Tovorafenib, reference compound]
HCT-116 cells
  pIC50: 5.00 to 6.00
[1]
  pIC50: 5.00 to 6.00
MiaPaca-2 cells
  pIC50: 5.00 to 6.00
HPAF-II cells
  pIC50: 5.00 to 6.00

## Cc1ccc(NC(=O)c2ccnc(C(F)(F)F)c2)cc1-c1cc(OCCO)nc(N2CCOCC2)c1 [Naporafenib]
[1]
  pIC50: 5.00 to 6.00

## CC(C)(C)c1nc(-c2cccc(NS(=O)(=O)c3c(F)cccc3F)c2F)c(-c2ccnc(N)n2)s1 [Dabrafenib, dabrafenib]
[1]
  pIC50: 5.00 to 6.00

## CCCS(=O)(=O)Nc1ccc(F)c(C(=O)c2c[nH]c3ncc(-c4ccc(Cl)cc4)cc23)c1F [Vemurafenib, vemurafenib]
[1]
  pIC50: 5.00 to 6.00

## Cc1ccc(NC(=O)N2CC[C@@H](CC(F)(F)F)C2)cc1-c1cc(N[C@H](C)CO)nc(N2CCOCC2)c1 [Exarafenib, reference compound]
HCT-116 cells
  pIC50: 6.00 to 6.30
[1]
  pIC50: 5.00 to 6.00
MiaPaca-2 cells
  pIC50: 5.00 to 6.00
HPAF-II cells
  pIC50: 5.00 to 6.00

## Cc1ccc2c(Nc3cccc(Cl)c3F)nccc2c1NC(=O)c1csc2c(N)ncnc12 [Belvarafenib, reference compound]
Porcine Brain Tubulin
  pIC50: < 4.00
[2]
  pIC50: > 7.00
[1]
  pIC50: 5.00 to 6.00
[3]
  pIC50: > 7.00
